# Data taken from US20120039917A1, “IMMUNO[…]” (priority 2008, published 2012).
# Several values for one entry are separate records, joined by “and”; a condition that tells them apart may be missing. Identical values can stand only once. Like-named read-outs stand apart in the source and are kept apart here.
# Tests used:
# proliferating T cells = assay: Apoptosis/viability by Annexin V/propidium iodide staining; type: cell-based; conditions: Homo sapiens, T-cell
# Method: Immediately prior to experiments, frozen PBMC were thawed, centrifuged at 1400 rpm in a Multifuge 3 s (Heraeus) for 4 min, washed in RPMI+10% FCS and resuspended in T cell medium (RPMI+10% FCS+10 μM 2-mercaptoethanol (Sigma), 1×glutamine, 1×non-essential amino acids (Gibco)) at 2×10^6 cells/mL. Cells (2×10^5) were activated by adding 10 μg/mL anti-CD3 and 5 μg/mL anti-CD28 and 20 U/mL IL-2 per well. Cells were incubated at 37° C. in a humidified incubator maintained at 5% CO2 for 4 to 5 days until large numbers of large spherical aggregates or “bursts” of lymphocytes were observed. Activated proliferating T cells were pooled from the wells for further experiments. Resting T cells were incubated for the same length of time but in the presence of 20 U/mL IL-2 only.
# (§1) Cells were centrifuged at 1400 rpm in a Multifuge 3 s (Heraeus) for 4 min at room temperature, washed in phosphate buffered saline solution, pH 7.3 (PBS) and resuspended in Annexin V binding buffer. Small aliquots (0.5-1×10^6 cells) were transferred to 1.5 mL tubes and spun at 1400 rpm in a Multifuge 3 s (Heraeus) for 4 min. Most supernatant was removed and 5 μL PI and 5 μL FITC-labelled AV was added to the wet pellets which were vortexed. After 30 min in the dark on ice, 500 μl of AV binding buffer was added, the cells were centrifuged for 2 min at 1400 rpm, washed once with AV binding buffer and resuspended in 300 μL of AV binding buffer in FACS tubes. Staining was analyzed by flow cytometry using a Becton Dickinson Canto II FACS analyser using FlowJo (TreeStar) software.
# The extent of apoptosis in resting and proliferating T cells was determined after 24 h exposure to 10 μM PXD (FIG. 2) by AV/PI staining. […] Resting T cells were not affected (FIG. 2D). The percentage of viable proliferating T cells dropped from 74% (FIG. 2F) to 51% after exposure to 10 μM PXD for 24 h (FIG. 2H), whilst the percentage of viable resting T cells was unaltered (FIGS. 2B and D).
# In order to investigate whether cells need to be exposed continually to PXD for its effects to manifest, proliferating T cells were exposed to 10 μM PXD for different periods of time, washed cells twice in RPMI and incubated for a further 24 h in fresh T cell medium.
# [1] = system: late stage solid cancer patients; conditions: intravenous infusion, phase I; cited from earlier work
# primary AML blasts = assay: Viability of leukemic blasts from bone marrow samples, AV/PI staining; type: cell-based, human
# Method: (§2) FIG. 6. Sensitivity of different cell types to PXD. Different cell types were incubated with 10 μM PXD for 24 h and viability was determined by AV/PI staining and reported as [% viable blasts after PXD exposure]/[% viable blasts after 0.1% DMSO exposure]. Percentage values are as follows: AML-derived HL60: 16±5 and HL60p°: 54±6, ALL-derived MOLT-4: 44±4, MM-derived U226: 59±6 and RPMI 8226: 12±4, primary AML blasts: 64±5, primary ALL blasts: 23±4, normal BM: 89±5, proliferating T cells: 69±4, resting T cells: 98±6. Results from cell lines are presented as the average±SEM of at least 3 separate experiments, results from bone marrow samples are presented as the average±SD of single experiments performed in duplicate.
# (§3) Bone marrow samples from AML (n=22) and ALL (n=8) patients, containing more than 80% blasts, were selected from the tissue bank. Bone marrow samples were thawed, centrifuged at 1400 rpm in a Multifuge 3 s (Heraeus) for 4 min, washed twice in RPMI and resuspended in RPMI+10% FCS. Aliquots were incubated for 24 h in the presence of 0.1% DMSO (control) or 10 μM PXD and examined for morphology and viability. […] was determined by AV/PI staining as [% viable blasts after PXD treatment]/[% viable blasts in control sample].
# as §1
# primary ALL blasts = assay: as above; type: cell-based, human
# Method: as §2, §3, §1
# responder T cells = assay: HLA-mismatched mixed lymphocyte reaction in the presence of PXD; type: cell-based, human; conditions: 10 μM PXD on day 0, analysed day 8
# Method: Mixed lymphocyte reactions were established using unrelated, HLA-mismatched healthy donor blood samples as donor/recipient pairs. Stimulator PBMC were γ-irradiated with 30 Gy as described previously (Zenhausen et al., 2007). Responder PBMC were washed twice in PBS, 5,6-carboxy-succinimidyl-fluorescein-ester (CSFE)-labelled (1.25 μM, Sigma) at room temperature for 5 minutes, and washed twice in PBS/10% FCS. Two hundred thousand stimulator and responder cells were added per well at a 1:1 ratio in a 96 U-well plate in T cell medium. Stimulator and responder cells were also plated alone, and all cells were cultured in a 5% CO2, 37° C. humidified incubator. Viability, CFSE fluorescence and cell surface antigen expression were determined by flow cytometry. Cells were washed twice in FACS buffer (PBS, 2% FCS), and resuspended in 50 μL/5×10^5 cells and analysed on a Becton Dickinson LSRII FACS analyser using FlowJo (TreeStar) software.
# The ability of PXD to induce apoptosis in proliferating T cells was further tested in a HLA-mismatched MLR. CFSE labelled responder cells were mixed with HLA-mismatched γ-irradiated stimulator cells in the presence of 0.1% DMSO (control) and 10 μM PXD on day 0. Responder cells were analysed for proliferation (CFSEIO) and viability (AV^−) at day 8 to allow exposure of proliferating responder cells to the drug for several days.
smiles,measurement,setting,value
"Oc1ccc(C2=Cc3ccc(O)cc3OC2)cc1 [PXD, Isoflav-3-en-4′,7-diol]",viability at 10 µM,"proliferating T cells; 24 h, 10 μM PXD for 24 h, control 74%, read-out: percentage of viable proliferating T cells (AV/PI)",51%
same,viability at 10 µM,"proliferating T cells; 24 h, proliferating T cells, 10 μM PXD for 24 h, read-out: [% viable blasts after PXD exposure]/[% viable blasts after 0.1% DMSO exposure]",69 ± 4%
same,viability at 10 µM,"proliferating T cells; PXD pre-incubated in 10% FCS, 10 μM final, relative to 0.1% DMSO, read-out: % Viable cells after exposure time 24 h",70 ± 7.1%
same,viability at 10 µM,"proliferating T cells; PXD pre-incubated in 10% FCS, 10 μM final, then 24 h, relative to 0.1% DMSO, read-out: % Viable cells after exposure time 1 min",64 ± 4.6%
same,viability at 10 µM,"proliferating T cells; PXD pre-incubated in 10% FCS, 10 μM final, then 24 h, relative to 0.1% DMSO, read-out: % Viable cells after exposure time 10 min",60 ± 7.1%
same,viability at 10 µM,"proliferating T cells; PXD pre-incubated in 90% FCS, 10 μM final, relative to 0.1% DMSO, read-out: % Viable cells after exposure time 24 h",69 ± 7.2%
same,viability at 10 µM,"proliferating T cells; PXD pre-incubated in 90% FCS, 10 μM final, then 24 h, relative to 0.1% DMSO, read-out: % Viable cells after exposure time 1 min",66 ± 4.2%
same,viability at 10 µM,"proliferating T cells; PXD pre-incubated in 90% FCS, 10 μM final, then 24 h, relative to 0.1% DMSO, read-out: % Viable cells after exposure time 10 min",62 ± 5.7%
same,viability at 10 µM,"proliferating T cells; PXD pre-incubated in 90% Human Serum, 10 μM final, relative to 0.1% DMSO, read-out: % Viable cells after exposure time 24 h",73.5 ± 9.2%
same,viability at 10 µM,"proliferating T cells; PXD pre-incubated in 90% Human Serum, 10 μM final, then 24 h, relative to 0.1% DMSO, read-out: % Viable cells after exposure time 1 min",69 ± 4.4%
same,viability at 10 µM,"proliferating T cells; PXD pre-incubated in 90% Human Serum, 10 μM final, then 24 h, relative to 0.1% DMSO, read-out: % Viable cells after exposure time 10 min",72 ± 7.3%
same,"stabilization of disease after treatment, some patients",[1],up to 6 months
same,well tolerated dose with minor side effects,[1],≤ 30 mg/kg
same,viability at 10 µM,"primary AML blasts; Homo sapiens, 24 h, primary AML blasts (average), 10 μM PXD for 24 h, read-out: [% viable blasts after PXD exposure]/[% viable blasts after 0.1% DMSO exposure]",64 ± 5%
same,% Viable Blasts,"primary AML blasts; individual AML patient bone marrow samples, 10 μM PXD 24 h, relative to 0.1% DMSO control",23% and 32% and 36% and 39% and 44% and 49% and 55% and 57% and 58% and 62% and 67% and 71% and 75% and 88% and 92% and 95% and 96% and 97% and 99% and 20%
same,viability at 10 µM,"primary ALL blasts; Homo sapiens, 24 h, primary ALL blasts (average), 10 μM PXD for 24 h, read-out: [% viable blasts after PXD exposure]/[% viable blasts after 0.1% DMSO exposure]",23 ± 4%
same,% Viable Blasts,"primary ALL blasts; individual ALL patient bone marrow samples, 10 μM PXD 24 h, relative to 0.1% DMSO control",25% and 29% and 37% and 40% and 7% and 14% and 16% and 19%
same,resting responder cell population (CD3+CFSEhiAV−),responder T cells,present in both control and PXD treated MLR
same,proliferating allogeneic T cells (CD3+CFSloAV− population),responder T cells; control MLR 46.5%,2%
